Source: ChEMBL document CHEMBL1156050, “Synthesis and evaluation of 9-aminoacridines derived from benzyne click chemistry” (Bioorg Med Chem Lett, 2009)

Key:
[1] = tested on: Nucleic Acid; assay: Binding affinity to DNA; assay type: nucleic-acid assay
[2] = tested on: Nucleic Acid; assay: Displacement of ethidium bromide from DNA by titration
[3] = tested on: HL-60; assay: Cytotoxicity against human HL60 cells; assay type: functional, cell-based
[4] = Homo sapiens, HL-60, read-out: IC50

SMILES | log K [1] | C50 [2] | IC50 [3, 4] | IC50 ([3]; hl-60)
CN(C)CCNC(=O)c1ccc2c(NCCn3nnc4ccccc43)c3ccccc3nc2c1 | 6.54 | 12.1 µM | 262 µM | –
CN1CCN(C(=O)c2ccc3c(NCCn4nnc5ccccc54)c4ccccc4nc3c2)CC1 | 6.2 | 26.2 µM | – | Not Active
CN1CCN(C(=O)c2ccc3c(NCCN=[N+]=[N-])c4ccccc4nc3c2)CC1 | – | > 200 µM | 45.7 µM | –
CN(C)CCNC(=O)c1cccc2c(NCCn3nnc4ccccc43)c3ccccc3nc12 | 6.14 | 30 µM | 23.4 µM | –

Continued, in another order:

log K [1] | C50 [2] | SMILES | IC50 [3, 4] | IC50 ([3]; hl-60)
6.49 | 13.6 µM | CN(C)CCNC(=O)c1cccc2c(NCCN=[N+]=[N-])c3ccccc3nc12 | 0.72 µM | –
5.65 | 93.2 µM | CN1CCN(C(=O)c2cccc3c(NCCn4nnc5ccccc54)c4ccccc4nc23)CC1 | – | Not Active
6.37 | 17.6 µM | CN(C)CCNC(=O)c1ccc2c(NCCN=[N+]=[N-])c3ccccc3nc2c1 | 5.4 µM | –
– | > 200 µM | CN1CCN(C(=O)c2cccc3c(NCCN=[N+]=[N-])c4ccccc4nc23)CC1 | 52 µM | –
